Target: T1, full-length beta-Catenin (Uniprot ID P35222) (Homo sapiens, UniProt P35222)
T1 construct: 10 nM full-length beta-Catenin (Uniprot ID P35222)
T1 sequence (P35222 1-781): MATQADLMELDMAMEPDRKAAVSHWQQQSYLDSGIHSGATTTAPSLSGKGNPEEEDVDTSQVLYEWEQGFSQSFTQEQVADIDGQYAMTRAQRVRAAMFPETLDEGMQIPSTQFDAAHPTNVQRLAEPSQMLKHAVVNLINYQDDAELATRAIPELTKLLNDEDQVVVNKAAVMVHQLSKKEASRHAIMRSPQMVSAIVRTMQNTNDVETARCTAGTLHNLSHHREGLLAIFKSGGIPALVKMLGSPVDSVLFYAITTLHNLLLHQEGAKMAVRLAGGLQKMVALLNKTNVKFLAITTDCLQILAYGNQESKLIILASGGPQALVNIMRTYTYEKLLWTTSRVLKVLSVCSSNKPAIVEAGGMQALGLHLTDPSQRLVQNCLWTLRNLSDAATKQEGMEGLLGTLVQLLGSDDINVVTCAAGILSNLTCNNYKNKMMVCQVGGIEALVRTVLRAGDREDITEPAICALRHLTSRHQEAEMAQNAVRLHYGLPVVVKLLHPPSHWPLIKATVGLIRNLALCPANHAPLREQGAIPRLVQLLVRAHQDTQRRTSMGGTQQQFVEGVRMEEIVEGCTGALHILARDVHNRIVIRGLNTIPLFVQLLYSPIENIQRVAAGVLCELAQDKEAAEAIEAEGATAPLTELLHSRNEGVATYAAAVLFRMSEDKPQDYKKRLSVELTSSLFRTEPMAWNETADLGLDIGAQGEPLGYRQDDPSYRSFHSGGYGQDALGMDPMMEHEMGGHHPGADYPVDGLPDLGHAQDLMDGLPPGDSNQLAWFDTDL
Assay: Fluorescence polarization IC50 (beta-catenin / 5FAM-TCF4 10-53 competition)
Format: binding
Conditions: fluorescence polarization; read-out: beta-Catenin FP IC50

IC50 [nM]	SMILES
18	CC(=O)N1CCC[C@]12CC=CCCCC1(CCCC=CCCCOC(=O)N3CC[C@@](C(=O)N[C@@H](Cc4ccccc4Cl)C(=O)N[C@@H](Cc4csc5ccccc45)C(=O)N[C@H](C)C(N)=O)(C3)NC(=O)[C@H](CC(N)=O)NC(=O)[C@H](Cc3ccccc3)NC(=O)[C@H](C)NC(=O)[C@H](C)NC(=O)[C@H](Cc3cccc(C(=O)O)c3)NC(=O)[C@H](CC(=O)O)NC1=O)NC(=O)[C@H](CC(C)(C)C)NC(=O)[C@H](CC(=O)O)NC2=O (stereo partly drawn) [I-2034, Ac-PL3-Asp-Npg-B5-Asp-3COOHF-Ala-Ala-Phe-Asn-PyrS2-2C1F-BztA-dAla-NH2]
1630	CC(=O)N1CCC[C@]12CC=CCCCC1(CCCC=CCCCOC(=O)N3CC[C@@](C(=O)N[C@@H](Cc4ccsc4)C(=O)N[C@@H](Cc4csc5ccccc45)C(=O)N[C@@H](CCC(N)=O)C(N)=O)(C3)NC(=O)[C@H](CC(C)C)NC(=O)[C@H](Cc3ccccc3)NC(=O)[C@H](C)NC(=O)[C@H](C)NC(=O)[C@H](CC(=O)O)NC(=O)[C@H](CC(=O)S)NC1=O)NC(=O)[C@H](CC(C)(C)C)NC(=O)[C@H](CC(=O)O)NC2=O (stereo partly drawn) [I-1944, Ac-PL3-Asp-Npg-B5-AspSH-Asp-Ala-Ala-Phe-Leu-PyrS2-3Thi-BztA-Gln-NH2]
1330	CC(=O)N1CCC[C@]12CC=CCCCC1(CCCC=CCCCOC(=O)N3CC[C@@](C(=O)N[C@@H](Cc4ccsc4)C(=O)N[C@@H](Cc4csc5ccccc45)C(=O)N[C@@H](CCC(N)=O)C(N)=O)(C3)NC(=O)[C@H](CC(C)C)NC(=O)[C@H](Cc3ccccc3)NC(=O)[C@H](C)NC(=O)[C@H](C)NC(=O)[C@H](CCC(=O)S)NC(=O)[C@H](CC(=O)O)NC1=O)NC(=O)[C@H](CC(C)(C)C)NC(=O)[C@H](CC(=O)O)NC2=O (stereo partly drawn) [I-1948, Ac-PL3-Asp-Npg-B5-Asp-GluSH-Ala-Ala-Phe-Leu-PyrS2-3Thi-BztA-Gln-NH2]
87	CC(=O)N1CCC[C@]12CC=CCCCC1(CCCC=CCCCOC(=O)N3CC[C@@](C(=O)N[C@@H](Cc4ccsc4)C(=O)N[C@@H](Cc4c[nH]c5cccc(Cl)c45)C(=O)N[C@@H](CCC(N)=O)C(N)=O)(C3)NC(=O)[C@H](CC(N)=O)NC(=O)[C@H](Cc3ccccc3)NC(=O)[C@H](C)NC(=O)[C@H](C)NC(=O)[C@H](CC(=O)O)NC(=O)[C@H](CC(=O)O)NC1=O)NC(=O)[C@H](CC(C)(C)C)NC(=O)[C@H](CC(=O)O)NC2=O (stereo partly drawn) [I-2176, Ac-PL3-Asp-Npg-B5-Asp-Asp-Ala-Ala-Phe-Asn-PyrS2-3Thi-4C1W-Gln-NH2]
609	CC(=O)N1CCC[C@]12CC=CCCCC1(CCCC=CCCCOC(=O)N3CC[C@@](C(=O)N[C@@H](Cc4ccccc4)C(=O)N[C@@H](Cc4csc5ccccc45)C(=O)N[C@@H](CC(=O)N4CCOCC4)C(N)=O)(C3)NC(=O)[C@H](CC(C)C)NC(=O)[C@H](Cc3ccccc3)NC(=O)[C@H](C)NC(=O)[C@H](CCCCNS(C)(=O)=O)NC(=O)[C@H](CCC(N)=O)NC(=O)[C@H](CC(=O)O)NC1=O)NC(=O)[C@H](CC1CCCCC1)NC(=O)[C@H](CC(N)=O)NC2=O (stereo partly drawn) [I-2524, Ac-PL3-Asn-Cha-B5-Asp-Gln-[MeSO2]Lys-Ala-Phe-Leu-PyrS2-Phe-BztA-MorphAsn-NH2]
12	CC(=O)N1CCC[C@]12CC=CCCCC1(CCCC=CCCCOC(=O)N3CC[C@@](C(=O)N[C@@H](Cc4ccccc4C(F)(F)F)C(=O)N[C@@H](Cc4csc5ccccc45)C(=O)N[C@@H](CO)C(N)=O)(C3)NC(=O)[C@H](CC(C)C)NC(=O)[C@H](Cc3ccccc3)NC(=O)[C@H](C)NC(=O)[C@H](C)NC(=O)[C@H](Cn3cc(CCC(=O)O)nn3)NC(=O)[C@H](CC(=O)O)NC1=O)NC(=O)[C@H](CC(C)(C)C)NC(=O)[C@H](CC(=O)O)NC2=O (stereo partly drawn) [I-2370, Ac-PL3-Asp-Npg-B5-Asp-[CH2CH2CO2H]TriAzDap-Ala-Ala-Phe-Leu-PyrS2-2F3MeF-BztA-Ser-NH2]
660	CC(=O)N1CCC[C@]12CCCCCCC1(CCCCCCCCOC(=O)N3CC[C@@](C(=O)N[C@@H](Cc4ccsc4)C(=O)N[C@@H](Cc4csc5ccccc45)C(=O)N[C@@H](CC(C)C)C(N)=O)(C3)NC(=O)[C@H]([C@@H](C)O)NC(=O)[C@H](Cc3ccccc3)NC(=O)[C@H](C)NC(=O)[C@H](C)NC(=O)[C@H](CN(CC(=O)O)CC(F)(F)F)NC(=O)[C@H](CC(=O)O)NC1=O)NC(=O)[C@H](CC(C)(C)C)NC(=O)[C@H](CC(=O)O)NC2=O (stereo partly drawn) [I-1754, Ac-PL3-Asp-Npg-B5-Asp-TfeGA-Ala-Ala-Phe-Thr-PyrS2-3Thi-BztA-Leu-NH2]
550	CC(=O)N1CCC[C@]12CC=CCCCC1(CCCC=CCCCOC(=O)N3CC[C@@](C(=O)N[C@@H](Cc4ccsc4)C(=O)N[C@@H](Cc4csc5ccccc45)C(=O)N[C@@H](CCC(N)=O)C(N)=O)(C3)NC(=O)[C@H](CC(C)C)NC(=O)[C@H](Cc3ccccc3)NC(=O)[C@H](C)NC(=O)[C@H](C)NC(=O)[C@H](CC(=O)O)NC(=O)[C@H](CC(=O)O)NC1=O)NC(=O)[C@H](CC(C)(C)C)NC(=O)[C@H](CO)NC2=O (stereo partly drawn) [I-1223, Ac-PL3-Ser-Npg-B5-Asp-Asp-Ala-Ala-Phe-Leu-PyrS2-3Thi-BztA-Gln-NH2]
757	CC(=O)N1CCC[C@]12CC=CCCCC1(CCCC=CCCCOC(=O)N3CC[C@@](C(=O)N[C@@H](Cc4ccccc4)C(=O)N[C@@H](Cc4csc5ccccc45)C(=O)N[C@@H](CCCCN)C(N)=O)(C3)NC(=O)[C@H](CC(C)C)NC(=O)[C@H](Cc3ccccc3)NC(=O)[C@H](C)NC(=O)[C@H](CCCN3CCOCC3)NC(=O)[C@H](CCC(N)=O)NC(=O)[C@H](CC(=O)O)NC1=O)NC(=O)[C@H](CC1CCCCC1)NC(=O)[C@H](CC(N)=O)NC2=O (stereo partly drawn) [I-2427, Ac-PL3-Asn-Cha-B5-Asp-Gln-MorphNva-Ala-Phe-Leu-PyrS2-Phe-BztA-Lys-NH2]
868	CC(=O)N1CCC[C@]12CC=CCCCC1(CCCC=CCCCOC(=O)N3CC[C@@](C(=O)N[C@@H](Cc4ccsc4)C(=O)N[C@@H](Cc4csc5ccccc45)C(=O)N[C@@H](CC(C)C)C(N)=O)(C3)NC(=O)[C@H](CC(N)=O)NC(=O)[C@H](Cc3ccccc3)NC(=O)[C@H](C)NC(=O)[C@H](C)NC(=O)[C@H]([C@@H](C)O)NC(=O)[C@H](CC(N)=O)NC1=O)NC(=O)[C@H](CC(C)(C)C)NC(=O)[C@H](CC(=O)O)NC2=O (stereo partly drawn) [I-1880, Ac-PL3-Asp-Npg-B5-Asn-Thr-Ala-Ala-Phe-Asn-PyrS2-3Thi-BztA-Leu-NH2]
164	CC(=O)N1CCC[C@]12CC=CCCCC1(CCCC=CCCCOC(=O)N3CC[C@@](C(=O)N[C@@H](Cc4ccccc4)C(=O)N[C@@H](Cc4csc5ccccc45)C(=O)N[C@@H](CCC(N)=O)C(N)=O)(C3)NC(=O)[C@H](CC(N)=O)NC(=O)[C@H](Cc3ccccc3)NC(=O)[C@H](C)NC(=O)[C@H](CCCCNC(C)C)NC(=O)[C@H](CCC(N)=O)NC(=O)[C@H](CC(=O)O)NC1=O)NC(=O)[C@H](CC1CCCCC1)NC(=O)[C@H](CC(N)=O)NC2=O (stereo partly drawn) [I-2113, Ac-PL3-Asn-Cha-B5-Asp-Gln-iPrLys-Ala-Phe-Asn-PyrS2-Phe-BztA-Gln-NH2]
781	CC(C)C[C@@H]1NC(=O)[C@H](Cc2ccccc2)NC(=O)[C@H](C)NC(=O)[C@H](C)NC(=O)[C@H](CN(CC(=O)O)CC(F)(F)F)NC(=O)[C@H](CC(=O)O)NC(=O)C2(CCCCCCCCOC(=O)N3CC[C@@](C(=O)N[C@@H](Cc4ccsc4)C(=O)N[C@@H](Cc4csc5ccccc45)C(=O)N[C@@H](CCC(N)=O)C(N)=O)(C3)NC1=O)CCCCCCOc1cccc(c1)CC(=O)N[C@@H](CC(=O)O)C(=O)N[C@@H](CC(C)(C)C)C(=O)N2 (stereo partly drawn) [I-2404, PAc3OAllyl-Asp-Npg-B5-Asp-TfeGA-Ala-Ala-Phe-Leu-PyrS2-3Thi-BztA-Gln-NH2]
2820	CC(=O)N1CCC[C@]12CC=CCCCC1(CCCC=CCCCOC(=O)N3CC[C@@](C(=O)N[C@@H](Cc4ccsc4)C(=O)N[C@@H](Cc4csc5ccccc45)C(=O)N[C@@H](CCC(N)=O)C(N)=O)(C3)NC(=O)[C@H](CC(N)=O)NC(=O)[C@H](Cc3ccccc3)NC(=O)C(C)(C)NC(=O)[C@H](C)NC(=O)[C@H]([C@@H](C)O)NC(=O)[C@H](CC(N)=O)NC1=O)NC(=O)[C@H](CC(C)(C)C)NC(=O)[C@H](CC(=O)O)NC2=O (stereo partly drawn) [I-2339, Ac-PL3-Asp-Npg-B5-Asn-Thr-Ala-Aib-Phe-Asn-PyrS2-3Thi-BztA-Gln-NH2]
189	CC(=O)N1CCC[C@]12CC=CCCCC1(CCCC=CCCOC(=O)N3CC[C@@](C(=O)N[C@@H](Cc4ccsc4)C(=O)N[C@@H](Cc4csc5ccccc45)C(=O)N[C@@H](CCC(N)=O)C(N)=O)(C3)NC(=O)[C@H](CC(C)C)NC(=O)[C@H](Cc3ccccc3)NC(=O)[C@H](C)NC(=O)[C@H](C)NC(=O)[C@H](CC(=O)O)NC(=O)[C@H](CC(=O)O)NC1=O)NC(=O)[C@H](CC(C)(C)C)NC(=O)[C@H](CC(=O)O)NC2=O (stereo partly drawn) [I-1814, Ac-PL3-Asp-Npg-B5-Asp-Asp-Ala-Ala-Phe-Leu-PyrS1-3Thi-BztA-Gln-NH2]
501	CC(=O)N1CCC[C@]12CC=CCCCC1(CCCC=CCCCOC(=O)N3CC[C@@](C(=O)N[C@@H](Cc4ccccc4)C(=O)N[C@@H](Cc4csc5ccccc45)C(=O)N[C@H](C(N)=O)[C@@H](C)O)(C3)NC(=O)[C@H](CC(N)=O)NC(=O)[C@H](Cc3ccccc3)NC(=O)[C@H](C)NC(=O)[C@H](CCCCNC(C)C)NC(=O)[C@H](CCC(N)=O)NC(=O)[C@H](CC(=O)O)NC1=O)NC(=O)[C@H](CC1CCCCC1)NC(=O)[C@H](CC(N)=O)NC2=O (stereo partly drawn) [I-2112, Ac-PL3-Asn-Cha-B5-Asp-Gln-iPrLys-Ala-Phe-Asn-PyrS2-Phe-BztA-Thr-NH2]

Reference: patent US20240116985A1, “STAPLED PEPTIDES AND METHODS THEREOF” (priority 2020, published 2024)
